# Experimental data as given in US20250176550A1, “HERBICIDE COMPOSITION OF URACIL COMPOUND CONTAINING CARBOXYLATE FRAGMENT AND THE USE THEREOF” (Jiangsu Flag Chemical Industry Co., Ltd., priority 2022, published 2025).
# Experiments:
# Experiment in all cases: Indoor virulence and combined effect, greenhouse pot test, post-emergence stem and leaf spray, fresh weight inhibition
# Format in all cases: in vivo
# digitaria sanguinalis = details: for Fresh weight suppression rate %, B single agent: Table 14
# Procedure: (§1) The active ingredients A and B are respectively screened and an indoor combined effect of the composition on weeds was evaluated by an indoor test and a field test, to determine a combined effect of the composition on weeds.
# (§2) Quantitative seeds of Poaceae weeds (echinochloa crusgalli, Digitaria sanguinalis, setaria viridis, Eleusine indica, avena fatua, alopecurus japonicus, alopecurus aequalis, Lolium multiflorum) and broadleaf weeds (eclipta prostrata, rorippa dubia, Abutilon theophrasti, conyza canadensis, veronica persica, myosoton aquaticum, polygonum lapathifolium, galium aparine var. tenerum, alisma plantago-aquatica, geranium carolinianum) were sown in paper cup containing nutrient soil with a diameter of 7 cm, covered with soil for 1 cm after sowing. After pressing and watering, they were cultured in a greenhouse according to a conventional method. Poaceae weeds grew to 3˜4 leaf stage, broad-leaved weeds grew to 4˜6 leaf stage, spraying treatment to both stem and leaf was performed; and pre-seedling soil spray treatment was performed 24 hours after sowing. Following an experimental design dosage, a WP-2000 walking spray tower (spindle speed 96 mm/r, spray height 200 mm, effective spray amplitude of nozzle 350 mm, nozzle flow rate 390 mL/min, nozzle walking speed 210 mm/s) was used for the spray treatment. The experiment was repeated three times. After being treated, a sample material is placed in an operation hall, and after the drug solution is naturally dried out, the sample material is placed in a greenhouse and managed according to the conventional method. A reaction of weeds to the drug agent is observed and recorded, and a regularly visual check of a control effect of the drug agent on weeds was performed after the treatment.
# (§3) All of original drugs were using acetone as a solvent, being diluted with 0.1 wt % emulsifier of Tween-80 aqueous solution, and being diluted right before using.
# (§4) When determining a ratio or content of the active ingredient A and the active ingredient B, it should be measured from characteristics of action of both agents and virulence thereof, as well as the main purpose of use of a formula shall also be considered in. In the present study, on a basis of previous pre-test, the dosages of the active ingredient A and the active ingredient B were set, when being used alone and mixed, as shown in the following table. Water containing no agent, but containing the same solvent and emulsifier was used as a blank control.
# (§5) Repeat 4 times for each treatment, 3 pots per treatment each time and 30 weed seeds were sown for each pot.
# (§6) Adopting an absolute number survey method, using a blade to cut the whole seedling of surviving weed along soil surface, and weighting the fresh weight of the weed with an analytical balance. For weeds that had died, counting the fresh weight as zero.
# (§7) Survey period and frequency: 21 days after the treatment, total 1 investigation.
# (§8) The theoretical fresh weight inhibition rate (E0-Expected Efficacy=[…]) of each treatment combination was calculated by Gowing method, and then compared with the measured inhibition rate (E-Observed Efficacy) to evaluate the combined effect type of both on weeds. When E-E0 value was greater than 10%, it was counted as a synergistic effect, less than −10%, it was counted as an antagonistic effect, and between −10%˜10%, it was counted as an additive effect. According to a plurality of factors including an actual control efficacy, a herbicide characteristic, a formula balance and other factors to determine the best ratio. In the formula, X is the fresh weight inhibition rate of the ingredient A at a dosage of P; Y is the fresh weight inhibition rate of the active ingredient B at a dosage of Q.
# (§9) The statistical results are shown in Table 1 to Table 44 below, except for those marked clearly as “pre-emergence treatment”, all others are “post-emergence treatment”. […]
# eleusine indica = test system: eleusine indica
# Procedure: as §1, §2, §3, §4, §5, §6, §7, §8, §9
# echinochloa crusgalli = details: for Fresh weight suppression rate %, B single dose: Table 22
# Procedure: as §1
# as §2, with “Following an experimental design dosage, a WP-2000 walking spray tower (spindle speed 96 mm/r, spray height 200 mm, effective spray amplitude of nozzle 350 mm, nozzle flow rate 390 mL/min, nozzle walking speed 210 mm/s) was used for the spray treatment.” left out, “method.” for “method. A reaction of weeds to the drug agent is observed and recorded, and a regularly visual check of a control effect of the drug agent on weeds was performed after the treatment.”
# as §3, §4, §5, §6, §7
# When E-E0 value was greater than 10%, it was counted as a synergistic effect, less than −10%, it was counted as an antagonistic effect, and between −10%˜10%, it was counted as an additive effect. […] In the formula, X is the fresh weight inhibition rate of the ingredient A at a dosage of P; Y is the fresh weight inhibition rate of the active ingredient B at a dosage of Q.
compound,measurement,setting,value
CS(=O)(=O)c1cc(C(F)(F)F)ccc1C(=O)c1cnoc1C1CC1 [isoxaflutole],"Fresh weight inhibition rate %, B single agent","digitaria sanguinalis; Table 16, B 40 g a.i./ha",56.12%
same,"Fresh weight inhibition rate %, B single agent","digitaria sanguinalis; Table 16, B 50 g a.i./ha",71.94%
same,"Fresh weight inhibition rate %, B single agent","digitaria sanguinalis; Table 16, B 60 g a.i./ha",73.13%
same,"Fresh weight inhibition rate %, B single agent","digitaria sanguinalis; Table 16, B 70 g a.i./ha",76.72%
CCOC(=O)COc1ncccc1Oc1cc(-n2c(=O)cc(C(F)(F)F)n(C)c2=O)c(F)cc1Cl [epyrifenacil],"Fresh weight inhibition rate %, B single agent","eleusine indica; Table 35, B 5 g a.i./ha",38.04%
same,"Fresh weight inhibition rate %, B single agent","eleusine indica; Table 35, B 10 g a.i./ha",32.92%
same,"Fresh weight inhibition rate %, B single agent","eleusine indica; Table 35, B 15 g a.i./ha",37.91%
same,"Fresh weight inhibition rate %, B single agent","eleusine indica; Table 35, B 20 g a.i./ha",51.59%
CCOC(=O)C1(C)CC(c2cc(-n3c(=O)cc(C(F)(F)F)n(C)c3=O)c(F)cc2Cl)=NO1 (centres unmarked) [SY-1604],"Fresh weight inhibition rate %, B single agent","eleusine indica; Table 33, B 7.5 g a.i./ha",47.10%
same,"Fresh weight inhibition rate %, B single agent","eleusine indica; Table 33, B 12.5 g a.i./ha",48.33%
same,"Fresh weight inhibition rate %, B single agent","eleusine indica; Table 33, B 20 g a.i./ha",64.09%
same,"Fresh weight inhibition rate %, B single agent","eleusine indica; Table 33, B 30 g a.i./ha",72.50%
same,"Fresh weight inhibition rate %, B single agent","eleusine indica; Table 33, B 40 g a.i./ha",74.06%
COCc1cnc(C2=NC(C)(C(C)C)C(=O)N2)c(C(=O)[O-])c1.[Na+] (centres unmarked) [imazamox-sodium],"Fresh weight inhibition rate %, B single agent","echinochloa crusgalli; Table 3, 15 g a.i./ha, post-emergence, 21 days after treatment",2.52%
same,"Fresh weight inhibition rate %, B single agent","echinochloa crusgalli; Table 3, 20 g a.i./ha, post-emergence, 21 days after treatment",13.41%
C[C@@H](Oc1ccc(Oc2nc3ccc(Cl)cc3o2)cc1)C(=O)N(C)c1ccccc1F [metamifop],"Fresh weight inhibition rate %, B single agent","digitaria sanguinalis; Table 29, B 15 g a.i./ha",49.80%
same,"Fresh weight inhibition rate %, B single agent","digitaria sanguinalis; Table 29, B 25 g a.i./ha",55.48%
same,"Fresh weight inhibition rate %, B single agent","digitaria sanguinalis; Table 29, B 40 g a.i./ha",58.52%
same,"Fresh weight inhibition rate %, B single agent","digitaria sanguinalis; Table 29, B 60 g a.i./ha",60.50%
COP(=S)(OC)SCC(=O)N(c1ccc(Cl)cc1)C(C)(C)C [anilofos],"Fresh weight suppression rate %, B single dose",echinochloa crusgalli; B 60 g a.i./ha,37.41%
same,"Fresh weight suppression rate %, B single dose",echinochloa crusgalli; B 80 g a.i./ha,41.96%
same,"Fresh weight suppression rate %, B single dose",echinochloa crusgalli; B 105 g a.i./ha,46.85%
same,"Fresh weight suppression rate %, B single dose",echinochloa crusgalli; B 120 g a.i./ha,64.69%
COC(=O)[C@@H](C)O/N=C/c1cc(-n2c(=O)cc(C(F)(F)F)n(C)c2=O)c(F)cc1Cl [flufenoximacil],"Fresh weight inhibition rate %, B single agent","eleusine indica; Table 36, B 5 g a.i./ha",34.41%
same,"Fresh weight inhibition rate %, B single agent","eleusine indica; Table 36, B 10 g a.i./ha",51.91%
same,"Fresh weight inhibition rate %, B single agent","eleusine indica; Table 36, B 15 g a.i./ha (row 5 + 15)",55.99%
same,"Fresh weight inhibition rate %, B single agent","eleusine indica; Table 36, B 15 g a.i./ha (row 15 + 15)",55.99%
same,"Fresh weight inhibition rate %, B single agent","eleusine indica; Table 36, B 20 g a.i./ha",59.18%
C[C@@H](Oc1nc(F)c(Cl)c(N)c1Cl)C(=O)OCC1CCCO1 (some centres unmarked) [fluchloraminopyr-tefuryl],"Fresh weight inhibition rate %, B single agent","digitaria sanguinalis; Table 41, B 50 g a.i./ha",47.40%
same,"Fresh weight inhibition rate %, B single agent","digitaria sanguinalis; Table 41, B 80 g a.i./ha",66.49%
same,"Fresh weight inhibition rate %, B single agent","digitaria sanguinalis; Table 41, B 120 g a.i./ha",74.76%
same,"Fresh weight inhibition rate %, B single agent","digitaria sanguinalis; Table 41, B 150 g a.i./ha",79.70%
N#Cc1cnn(-c2nn3c(c2Cl)CCCC3)c1NCC1CC1 [cyclopyranil],"Fresh weight inhibition rate %, B single agent","echinochloa crusgalli; Table 37, B 12.5 g a.i./ha",24.73%
same,"Fresh weight inhibition rate %, B single agent","echinochloa crusgalli; Table 37, B 20 g a.i./ha",25.46%
same,"Fresh weight inhibition rate %, B single agent","echinochloa crusgalli; Table 37, B 30 g a.i./ha",31.50%
same,"Fresh weight inhibition rate %, B single agent","echinochloa crusgalli; Table 37, B 40 g a.i./ha",39.05%
CC(C)N.O=C(O)CNCP(=O)(O)O [glyphosate-isopropylammonium],"Fresh weight inhibition rate %, B single agent","eleusine indica; Table 18, B 160 g a.i./ha",27.36%
same,"Fresh weight inhibition rate %, B single agent","eleusine indica; Table 18, B 240 g a.i./ha",32.37%
same,"Fresh weight inhibition rate %, B single agent","eleusine indica; Table 18, B 350 g a.i./ha",35.52%
same,"Fresh weight inhibition rate %, B single agent","eleusine indica; Table 18, B 500 g a.i./ha",45.72%
CC(C)N(C)S(=O)(=O)NC(=O)c1cc(-n2c(=O)cc(C(F)(F)F)n(C)c2=O)c(F)cc1Cl [saflufenacil],"Fresh weight inhibition rate %, B single agent","eleusine indica; Table 30, B 7.5 g a.i./ha",23.20%
same,"Fresh weight inhibition rate %, B single agent","eleusine indica; Table 30, B 12.5 g a.i./ha",39.66%
same,"Fresh weight inhibition rate %, B single agent","eleusine indica; Table 30, B 20 g a.i./ha",50.62%
same,"Fresh weight inhibition rate %, B single agent","eleusine indica; Table 30, B 30 g a.i./ha",58.13%
same,"Fresh weight inhibition rate %, B single agent","eleusine indica; Table 30, B 40 g a.i./ha",50.09%
COc1cc(OC)nc(NC(=O)NS(=O)(=O)c2ncccc2C(=O)N(C)C)n1 [nicosulfuron],inhibition at 12.5 g/ha,"digitaria sanguinalis; Digitaria sanguinalis, 504 h, Table 1, 12.5 g a.i./ha, post-emergence, 21 days after treatment, read-out: Fresh weight inhibition rate %, B single agent",10.2%
same,inhibition at 20 g/ha,"digitaria sanguinalis; Digitaria sanguinalis, 504 h, Table 1, 20 g a.i./ha, post-emergence, 21 days after treatment, read-out: Fresh weight inhibition rate %, B single agent",23.4%
same,inhibition at 25 g/ha,"digitaria sanguinalis; Digitaria sanguinalis, 504 h, Table 1, 25 g a.i./ha, post-emergence, 21 days after treatment, read-out: Fresh weight inhibition rate %, B single agent",34.9%
same,inhibition at 30 g/ha,"digitaria sanguinalis; Digitaria sanguinalis, 504 h, Table 1, 30 g a.i./ha, post-emergence, 21 days after treatment, read-out: Fresh weight inhibition rate %, B single agent",39.1%
CCC[S+]([O-])c1c(C(F)(F)F)ccc(C(=O)Nc2nnc(C)o2)c1F (centres unmarked) [flusulfinam],"Fresh weight suppression rate %, B single agent",digitaria sanguinalis; B 15 g a.i./ha,34.84%
same,"Fresh weight suppression rate %, B single agent",digitaria sanguinalis; B 30 g a.i./ha,36.52%
same,"Fresh weight suppression rate %, B single agent",digitaria sanguinalis; B 37.5 g a.i./ha,40.37%
same,"Fresh weight suppression rate %, B single agent",digitaria sanguinalis; B 45 g a.i./ha,50.75%
CS(=O)(=O)c1ccc(C(=O)C2C(=O)CCCC2=O)c([N+](=O)[O-])c1 [mesotrione],"Fresh weight inhibition rate %, B single agent","digitaria sanguinalis; Table 13, B 90 g a.i./ha",45.39%
same,"Fresh weight inhibition rate %, B single agent","digitaria sanguinalis; Table 13, B 105 g a.i./ha",56.62%
same,"Fresh weight inhibition rate %, B single agent","digitaria sanguinalis; Table 13, B 120 g a.i./ha",58.12%
oxadiargyl,"Fresh weight inhibition rate %, B single agent","digitaria sanguinalis; Table 31, B 12.5 g a.i./ha",38.31%
same,"Fresh weight inhibition rate %, B single agent","digitaria sanguinalis; Table 31, B 20 g a.i./ha",42.31%
same,"Fresh weight inhibition rate %, B single agent","digitaria sanguinalis; Table 31, B 30 g a.i./ha",52.31%
Cc1nn(-c2cc(NS(C)(=O)=O)c(Cl)cc2Cl)c(=O)n1C(F)F [sulfentrazone],"Fresh weight inhibition rate %, B single agent","eleusine indica; Table 32, B 75 g a.i./ha",8.30%
same,"Fresh weight inhibition rate %, B single agent","eleusine indica; Table 32, B 120 g a.i./ha",18.12%
same,"Fresh weight inhibition rate %, B single agent","eleusine indica; Table 32, B 150 g a.i./ha",23.53%
Cc1c(C(=O)c2cnn(C)c2O)ccc(S(C)(=O)=O)c1C1=NOCC1 [topramezone],"Fresh weight inhibition rate %, B single agent","digitaria sanguinalis; Table 15, B 7.5 g a.i./ha",3.85%
same,"Fresh weight inhibition rate %, B single agent","digitaria sanguinalis; Table 15, B 10 g a.i./ha",17.09%
same,"Fresh weight inhibition rate %, B single agent","digitaria sanguinalis; Table 15, B 12.5 g a.i./ha",19.6%
